Consider twelve compounds from ChEMBL document CHEMBL1201862, “PubChem BioAssay data set” (2004).

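All cell lines were grown in 96-well plates and treated with compound for 48 hours. The concentration for 50% growth inhibition is given as GI50.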 Active and inactive are the calls of the source. No stated cut-off is given here; in the data, active = GI50 up to about 1.1 µM and inactive = higher. A value given as a limit tells only on which side of the number the result lay.

Among the test systems are SW-620; SF-295; RPMI-8226; LOX IMVI; CAKI-1; RXF 393; OVCAR-5; CCRF-CEM; K562; HL-60; U-251; TK-10; UACC-62; UACC-257; SN12C; SF-268; NCI-H226; HCC 2998; A498.
Common to all, as to experiment: NCI tumour cell line growth inhibition, 48 h

For `Cc1cc(O)nc(NNC(C#N)c2ccc(N(C)C)cc2)n1` (stereo not drawn), the GI50 with SW-620, with SF-295, in the test with RPMI-8226, in the test on LOX IMVI, in the test on CAKI-1 and in the test with RXF 393 was > 100 µM (inactive) throughout. In addition, the GI50 in the test with OVCAR-5, in the test with CCRF-CEM, in the test with K562, in the test with HL-60, in the test on U-251 and with TK-10 was > 100 µM (inactive) throughout. For the same compound, the GI50 with UACC-62, in the test with UACC-257, in the test on SN12C, in the test with SF-268 and in the test on NCI-H226 was > 100 µM (inactive) each time.
In the case of `Cc1cc2c(c(C(=O)O)c1C)-c1cccc(F)c1C2=O`, the GI50 in the test with SW-620, with SF-295, with RPMI-8226, with LOX IMVI, in the test on HCC 2998 and in the test with CAKI-1 was > 100 µM (inactive) in each case. Moreover, the GI50 with RXF 393 was 66.7 µM (inactive); in the test with OVCAR-5, > 100 µM (inactive); in the test with CCRF-CEM it was > 100 µM (inactive); in the test on K562 it was > 100 µM (inactive); with U-251, > 100 µM (inactive); in the test with TK-10 it was > 100 µM (inactive). Moreover, the GI50 was > 100 µM (inactive) with UACC-62; > 100 µM (inactive) in the test on UACC-257; > 100 µM (inactive) in the test with SN12C; > 100 µM (inactive) with SF-268; 55.1 µM (inactive) with NCI-H226.
Turning to `c1ccc(NCn2cnc3ccccc32)cc1`, the GI50 in the test with SW-620 was 35.6 µM (inactive); in the test with SF-295 it was > 100 µM (inactive); in the test with RPMI-8226, 25.9 µM (inactive); in the test on LOX IMVI, 8.18 µM (inactive); in the test on A498 it was > 100 µM (inactive); in the test with RXF 393, > 100 µM (inactive). In addition, the GI50 in the test with OVCAR-5 is > 100 µM (inactive); in the test with CCRF-CEM, 37.1 µM (inactive); with K562, 20.8 µM (inactive); with U-251, > 100 µM (inactive); with TK-10, > 100 µM (inactive); with UACC-62, 7.45 µM (inactive). Also, the GI50 in the test with UACC-257 was > 100 µM (inactive); in the test with SN12C it was > 100 µM (inactive); with SF-268, 74.8 µM (inactive); in the test on NCI-H226 it was > 100 µM (inactive).
As to `CC(c1ccccc1)C(O)S(=O)(=O)O` (stereo not drawn), the GI50 is > 100 µM (inactive) in the test on SW-620; > 100 µM (inactive) in the test on SF-295; > 100 µM (inactive) with RPMI-8226; 36.8 µM (inactive) in the test with LOX IMVI; > 100 µM (inactive) with A498; > 100 µM (inactive) in the test with RXF 393. The GI50 in the test with OVCAR-5 is > 100 µM (inactive); with CCRF-CEM it was > 100 µM (inactive); with K562, > 10 µM (inactive); with U-251, > 100 µM (inactive); in the test with TK-10, > 100 µM (inactive); in the test on UACC-62, > 100 µM (inactive). In addition, the GI50 in the test on UACC-257, in the test on SN12C, in the test with SF-268 and in the test with NCI-H226 was > 100 µM (inactive) throughout.
Turning to `COc1ccc(CC2NCCc3cc(OC)c(OC)cc32)cc1` (stereo not drawn), the GI50 with SW-620, in the test on SF-295, with RPMI-8226, with LOX IMVI, with HCC 2998 and in the test with CAKI-1 was > 100 µM (inactive) in each case. The GI50 in the test on RXF 393, with OVCAR-5, in the test on CCRF-CEM, with HL-60, with U-251 and in the test with TK-10 was > 100 µM (inactive) each time. Moreover, the GI50 with UACC-62, in the test with UACC-257, in the test on SN12C, with SF-268 and in the test with NCI-H226 was > 100 µM (inactive) in each case.
With `COC(=O)C1=C(C(=O)OC)C23C=CC=CC24C(C(=O)OC)=C(C(=O)OC)C4C1C3` (stereo not drawn), the GI50 in the test on SW-620 was > 100 µM (inactive); with SF-295, > 100 µM (inactive); in the test on RPMI-8226, 51.2 µM (inactive); with HCC 2998 it was > 100 µM (inactive); with RXF 393, > 100 µM (inactive); in the test with OVCAR-5 it was > 100 µM (inactive). Moreover, the GI50 is 69.7 µM (inactive) with CCRF-CEM; 30.5 µM (inactive) with K562; 41.7 µM (inactive) in the test with HL-60; > 100 µM (inactive) in the test on U-251; > 100 µM (inactive) in the test on TK-10; 56.6 µM (inactive) in the test with UACC-62. The results for the GI50 with UACC-257, in the test on SN12C and with SF-268 were 50.2 µM (inactive), > 100 µM (inactive) and > 100 µM (inactive), respectively.
Take `CCOC(=O)/C(C#N)=C\Sc1ccccc1`: the GI50 is 25.9 µM (inactive) in the test with SW-620; 20 µM (inactive) with SF-295; 13.7 µM (inactive) in the test with RPMI-8226; 7.46 µM (inactive) in the test on LOX IMVI; 22.3 µM (inactive) in the test with CAKI-1; 16.8 µM (inactive) in the test on RXF 393. Also, the GI50 was 24.7 µM (inactive) in the test with OVCAR-5; 7.83 µM (inactive) in the test with CCRF-CEM; 18.3 µM (inactive) with K562; 7.23 µM (inactive) in the test on HL-60; 11.3 µM (inactive) with U-251; 32.4 µM (inactive) in the test with TK-10. Moreover, the GI50 was 16.1 µM (inactive) in the test with UACC-62; 24.7 µM (inactive) in the test on UACC-257; 14 µM (inactive) in the test on SN12C; 3.73 µM (inactive) in the test on SF-268; 16.7 µM (inactive) in the test on NCI-H226.
For `CC(=O)NS(=O)(=O)c1ccc(NC(=O)COC(=O)c2cccc3c(=O)c4ccccc4[nH]c23)cc1`, the GI50 in the test with SW-620, with SF-295, in the test on RPMI-8226, in the test with LOX IMVI, in the test with RXF 393 and in the test on CCRF-CEM was > 100 µM (inactive) each time. The GI50 in the test on K562, in the test with HL-60, in the test with U-251, with TK-10, in the test with UACC-62 and in the test with UACC-257 was > 100 µM (inactive) throughout. The GI50 with SN12C and in the test on NCI-H226 was > 100 µM (inactive) each time.
Take `COc1ccccc1NC(=O)CC(=O)NNCC(=O)Nc1nc(-c2ccccc2)cs1`: the GI50 was > 100 µM (inactive) in the test with SW-620; > 100 µM (inactive) in the test on SF-295; > 100 µM (inactive) in the test with RPMI-8226; > 100 µM (inactive) in the test on LOX IMVI; 4.1 µM (inactive) in the test on HCC 2998; > 100 µM (inactive) with RXF 393. The GI50 in the test with CCRF-CEM, in the test on K562, in the test on HL-60, in the test with U-251, with TK-10 and with UACC-62 was > 100 µM (inactive) throughout. Also, the GI50 in the test with SN12C was > 100 µM (inactive); with SF-268 it was > 100 µM (inactive); in the test on NCI-H226, 40.6 µM (inactive).
Regarding `CCCCNc1nc(C#N)c(N)s1`, the GI50 in the test with SW-620, with SF-295, in the test with RPMI-8226, in the test on LOX IMVI, with HCC 2998 and in the test on CAKI-1 was > 100 µM (inactive) throughout. The GI50 in the test on OVCAR-5, in the test with K562, with HL-60, with U-251, with TK-10 and with UACC-62 was > 100 µM (inactive) in each case. Besides, the GI50 with UACC-257, in the test with SN12C, in the test with SF-268 and in the test on NCI-H226 was > 100 µM (inactive) each time.
Turning to `CC(C)CCCCCCCCCCCCC(=O)NCC(=O)NC1C(C)OC(Nc2[nH]cnc3ncnc2-3)C(O)C1O` (stereo not drawn), the GI50 in the test with SW-620 was 0.00101 µM (active); with SF-295, 0.00234 µM (active); in the test on RPMI-8226, 0.000568 µM (active); with LOX IMVI, 0.000262 µM (active); in the test with HCC 2998, 0.000331 µM (active); in the test with CAKI-1 it was < 0.01 µM (active). In addition, the GI50 in the test with RXF 393 is < 0.01 µM (active); with OVCAR-5 it was 0.00123 µM (active); in the test on CCRF-CEM, 0.0048 µM (active); in the test with K562, 0.00644 µM (active); with HL-60 it was 0.000746 µM (active); in the test on U-251, 0.000425 µM (active). The GI50 was 0.00102 µM (active) with TK-10; < 0.01 µM (active) in the test on UACC-62; < 0.01 µM (active) in the test on UACC-257; 0.00214 µM (active) in the test on SN12C; 0.000635 µM (active) in the test on SF-268; 0.0024 µM (active) in the test on NCI-H226.
For the compound `Cc1nc2ccccc2c(=O)n1/N=C(\N=N\c1ccc(Cl)cc1)c1cccc(-c2ccco2)c1`, the GI50 in the test on SW-620 is 42.5 µM (inactive); in the test with SF-295, 48.5 µM (inactive); in the test on RPMI-8226, 19.1 µM (inactive); in the test on LOX IMVI, 28.9 µM (inactive); in the test on A498 it was 61.8 µM (inactive); in the test on CAKI-1, 25.5 µM (inactive). Also, the GI50 in the test on RXF 393 is 20.3 µM (inactive); in the test on CCRF-CEM it was 24.6 µM (inactive); with K562, 22.3 µM (inactive); in the test on HL-60 it was 25.1 µM (inactive); with U-251 it was 27.5 µM (inactive); in the test on TK-10, 51.5 µM (inactive). Besides, the GI50 is 22.4 µM (inactive) in the test on UACC-62, 29.2 µM (inactive) with SN12C and 19.7 µM (inactive) in the test on SF-268.
